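Protocol summary: plate cells (96-well), add compound at 5 concentrations, incubate 48 h, interpolate endpoints linearly. GI50: concentration for 50% inhibition of growth. TGI: total growth inhibition.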
Assays:
Assay in all cases: NCI anticancer screen, dose series, 48 h
SW-620 colon = tested on: SW-620 colon
HS 578T breast = tested on: HS 578T breast
A498 renal = tested on: A498 renal
SNB-19 CNS = tested on: SNB-19 CNS
LOX IMVI melanoma = tested on: LOX IMVI melanoma
EKVX NSCLC = tested on: EKVX NSCLC
SF-268 CNS = tested on: SF-268 CNS
SK-OV-3 ovarian = tested on: SK-OV-3 ovarian
OVCAR-5 ovarian = tested on: OVCAR-5 ovarian
SF-539 CNS = tested on: SF-539 CNS
HOP-92 NSCLC = tested on: HOP-92 NSCLC
HCT-15 colon = tested on: HCT-15 colon
OVCAR-3 ovarian = tested on: OVCAR-3 ovarian
SK-MEL-2 melanoma = tested on: SK-MEL-2 melanoma
IGROV1 ovarian = tested on: IGROV1 ovarian
SN12C renal = tested on: SN12C renal
SK-MEL-5 melanoma = tested on: SK-MEL-5 melanoma
RXF 393 renal = tested on: RXF 393 renal
MDA-MB-231 breast = tested on: MDA-MB-231 breast
BT-549 breast = tested on: BT-549 breast
HCT-116 colon = tested on: HCT-116 colon
M14 melanoma = tested on: M14 melanoma
MCF7 breast = tested on: MCF7 breast
CCRF-CEM leukemia = tested on: CCRF-CEM leukemia
UACC-62 melanoma = tested on: UACC-62 melanoma
U251 CNS = tested on: U251 CNS
NCI-H460 lung = tested on: NCI-H460 lung
HOP-62 NSCLC = tested on: HOP-62 NSCLC
ACHN renal = tested on: ACHN renal
PC-3 prostate = tested on: PC-3 prostate
OVCAR-4 ovarian = tested on: OVCAR-4 ovarian
CAKI-1 renal = tested on: CAKI-1 renal
SF-295 CNS = tested on: SF-295 CNS
SK-MEL-28 melanoma = tested on: SK-MEL-28 melanoma
COLO 205 colon = tested on: COLO 205 colon
786-0 renal = tested on: 786-0 renal
SNB-75 CNS = tested on: SNB-75 CNS
KM12 colon = tested on: KM12 colon
UACC-257 melanoma = tested on: UACC-257 melanoma
T-47D breast = tested on: T-47D breast
A549 NSCLC = tested on: A549 NSCLC
K-562 leukemia = tested on: K-562 leukemia
NCI/ADR-RES ovarian = tested on: NCI/ADR-RES ovarian
MOLT-4 leukemia = tested on: MOLT-4 leukemia
NCI-H23 lung = tested on: NCI-H23 lung
NCI-H226 lung = tested on: NCI-H226 lung
HT29 colon = tested on: HT29 colon
HL-60(TB) leukemia = tested on: HL-60(TB) leukemia
TK-10 renal = tested on: TK-10 renal
MDA-MB-435 = tested on: MDA-MB-435
DU-145 prostate = tested on: DU-145 prostate
RPMI-8226 leukemia = tested on: RPMI-8226 leukemia
OVCAR-8 ovarian = tested on: OVCAR-8 ovarian
HCC-2998 colon = tested on: HCC-2998 colon
UO-31 renal = tested on: UO-31 renal
NCI-H522 lung = tested on: NCI-H522 lung
MALME-3M melanoma = tested on: MALME-3M melanoma

## CC1=C2[C@H]3OC(=O)[C@@H](C)[C@@H]3CC[C@@]2(C)C=CC1=O
SW-620 colon
  GI50: > 100 µM
  TGI: > 100 µM
HS 578T breast
  GI50: > 100 µM
  TGI: > 100 µM
A498 renal
  GI50: > 100 µM
  TGI: > 100 µM
SNB-19 CNS
  GI50: > 100 µM
  TGI: > 100 µM
LOX IMVI melanoma
  GI50: > 100 µM
  TGI: > 100 µM
EKVX NSCLC
  GI50: > 100 µM
  TGI: > 100 µM
SF-268 CNS
  GI50: > 100 µM
  TGI: > 100 µM
SK-OV-3 ovarian
  GI50: > 100 µM
  TGI: > 100 µM
OVCAR-5 ovarian
  GI50: > 100 µM
  TGI: > 100 µM
SF-539 CNS
  GI50: > 100 µM
  TGI: > 100 µM
HOP-92 NSCLC
  GI50: > 100 µM
  TGI: > 100 µM
HCT-15 colon
  GI50: > 100 µM
  TGI: > 100 µM
OVCAR-3 ovarian
  GI50: > 100 µM
  TGI: > 100 µM
SK-MEL-2 melanoma
  GI50: > 100 µM
  TGI: > 100 µM
IGROV1 ovarian
  GI50: > 100 µM
  TGI: > 100 µM
SN12C renal
  GI50: > 100 µM
  TGI: > 100 µM
SK-MEL-5 melanoma
  GI50: > 100 µM
  TGI: > 100 µM
RXF 393 renal
  GI50: > 100 µM
  TGI: > 100 µM
MDA-MB-231 breast
  GI50: > 100 µM
  TGI: > 100 µM
BT-549 breast
  GI50: > 100 µM
  TGI: > 100 µM
HCT-116 colon
  GI50: > 100 µM
  TGI: > 100 µM
M14 melanoma
  GI50: > 100 µM
  TGI: > 100 µM
MCF7 breast
  GI50: > 100 µM
  TGI: > 100 µM
CCRF-CEM leukemia
  GI50: > 100 µM
  TGI: > 100 µM
UACC-62 melanoma
  GI50: > 100 µM
  TGI: > 100 µM
U251 CNS
  GI50: > 100 µM
  TGI: > 100 µM
NCI-H460 lung
  GI50: > 100 µM
  TGI: > 100 µM
HOP-62 NSCLC
  GI50: > 100 µM
  TGI: > 100 µM
ACHN renal
  GI50: > 100 µM
  TGI: > 100 µM
PC-3 prostate
  GI50: > 100 µM
  TGI: > 100 µM
OVCAR-4 ovarian
  GI50: > 100 µM
  TGI: > 100 µM
CAKI-1 renal
  GI50: > 100 µM
  TGI: > 100 µM
SF-295 CNS
  GI50: > 100 µM
  TGI: > 100 µM
SK-MEL-28 melanoma
  GI50: > 100 µM
  TGI: > 100 µM
COLO 205 colon
  GI50: > 100 µM
  TGI: > 100 µM
786-0 renal
  GI50: > 100 µM
  TGI: > 100 µM
SNB-75 CNS
  GI50: > 100 µM
  TGI: > 100 µM
KM12 colon
  GI50: > 100 µM
  TGI: > 100 µM
UACC-257 melanoma
  GI50: > 100 µM
  TGI: > 100 µM
T-47D breast
  GI50: > 100 µM
  TGI: > 100 µM
A549 NSCLC
  GI50: > 100 µM
  TGI: > 100 µM
K-562 leukemia
  GI50: > 100 µM
  TGI: > 100 µM
NCI/ADR-RES ovarian
  GI50: > 100 µM
  TGI: > 100 µM
MOLT-4 leukemia
  GI50: > 100 µM
  TGI: > 100 µM
NCI-H23 lung
  GI50: > 100 µM
  TGI: > 100 µM
NCI-H226 lung
  GI50: > 100 µM
  TGI: > 100 µM
HT29 colon
  GI50: > 100 µM
  TGI: > 100 µM
HL-60(TB) leukemia
  GI50: > 100 µM
  TGI: > 100 µM
TK-10 renal
  GI50: > 100 µM
  TGI: > 100 µM
MDA-MB-435
  GI50: > 100 µM
  TGI: > 100 µM
DU-145 prostate
  GI50: > 100 µM
  TGI: > 100 µM
RPMI-8226 leukemia
  GI50: > 100 µM
  TGI: > 100 µM
OVCAR-8 ovarian
  GI50: > 100 µM
  TGI: > 100 µM

## N#Cc1cc(-c2nc3cc(F)ccc3s2)ccc1N
SW-620 colon
  TGI: > 100 µM
HS 578T breast
  TGI: > 100 µM
A498 renal
  TGI: > 56.4 µM
SNB-19 CNS
  TGI: > 66.6 µM
LOX IMVI melanoma
  TGI: > 100 µM
EKVX NSCLC
  TGI: 98.8 µM
SF-268 CNS
  TGI: > 78.3 µM
SK-OV-3 ovarian
  TGI: > 92.3 µM
OVCAR-5 ovarian
  TGI: 2.9 µM
SF-539 CNS
  TGI: 56.7 µM
HOP-92 NSCLC
  TGI: 29.6 µM
HCT-15 colon
  TGI: > 100 µM
OVCAR-3 ovarian
  TGI: > 100 µM
SK-MEL-2 melanoma
  TGI: > 66.8 µM
IGROV1 ovarian
  TGI: 13.9 µM
SN12C renal
  TGI: > 100 µM
SK-MEL-5 melanoma
  TGI: > 100 µM
RXF 393 renal
  TGI: 14.1 µM
MDA-MB-231 breast
  TGI: > 85.1 µM
BT-549 breast
  TGI: 29.1 µM
HCT-116 colon
  TGI: > 100 µM
M14 melanoma
  TGI: 99.7 µM
MCF7 breast
  TGI: 0.583 µM
CCRF-CEM leukemia
  TGI: > 100 µM
UACC-62 melanoma
  TGI: > 87.7 µM
U251 CNS
  TGI: > 82.1 µM
NCI-H460 lung
  TGI: 17.8 µM
HOP-62 NSCLC
  TGI: > 100 µM
ACHN renal
  TGI: 62.5 µM
PC-3 prostate
  TGI: > 100 µM
OVCAR-4 ovarian
  TGI: > 93.5 µM
CAKI-1 renal
  TGI: > 100 µM
SF-295 CNS
  TGI: > 100 µM
SK-MEL-28 melanoma
  TGI: > 100 µM
HCC-2998 colon
  TGI: 0.0604 µM
COLO 205 colon
  TGI: > 100 µM
786-0 renal
  TGI: > 100 µM
SNB-75 CNS
  TGI: 6.68 µM
KM12 colon
  TGI: > 32.8 µM
UACC-257 melanoma
  TGI: > 100 µM
UO-31 renal
  TGI: > 100 µM
T-47D breast
  TGI: 0.22 µM
A549 NSCLC
  TGI: > 68.4 µM
K-562 leukemia
  TGI: > 100 µM
NCI/ADR-RES ovarian
  TGI: > 100 µM
NCI-H522 lung
  TGI: > 100 µM
MOLT-4 leukemia
  TGI: > 100 µM
NCI-H23 lung
  TGI: 0.848 µM
NCI-H226 lung
  TGI: 79.3 µM
HT29 colon
  TGI: > 100 µM
MALME-3M melanoma
  TGI: > 100 µM
HL-60(TB) leukemia
  TGI: > 100 µM
TK-10 renal
  TGI: 1.69 µM
MDA-MB-435
  TGI: > 100 µM
DU-145 prostate
  TGI: > 100 µM
RPMI-8226 leukemia
  TGI: > 100 µM
OVCAR-8 ovarian
  TGI: > 100 µM
